Data as given in publication PMC4853476 (Nature Communications, 2016).
Like-named read-outs stand apart in the source and are kept apart here.

Tests used:
human PRC2 complex = human PRC2 complex (Homo sapiens, UniProt O75530+Q15022+Q15910, DEL183-210)
Method: All anisotropy titrations were performed at 20 °C using a Jasco FP-8500 fluorimeter.
affinity of PRC2 for H3 peptide.
(a) Direct titration of PRC2 into FAM-K27M (0.4 μM) in the presence
absence of co-factor (white circles).
(320 μM) with unlabelled peptides.
titration of PRC2 into FAM-
The titration in the absence of repressive

PRC2 [1] = details: repressive peptides; cited from earlier work
PRC2 [2] = details: kinetic studies, cited from earlier work
From the text: In their recent analysis, Brown et al.[19] quantified the inhibitory affect of a series of peptide constructs varying in the side chain (both natural and synthetic) at position 27.

[3] = molecular target: human PRC2 core complex (EZH2^N 1-385 lacking 183-210, EZH2^C 421-746, EED 77-441, SUZ12 535-685) (human) (UniProt Q15910); experiment: fluorescence polarisation; anisotropy displacement titration: unlabelled peptide added to FAM-H3K27M (0.4 μM) and PRC2 ([…]) with SAM (320 μM); 20 °C; 25 mM Hepes pH 7.25, 25 mM NaCl, 1 mM TCEP, 0.01% Brij-35
Chain of human PRC2 core complex (EZH2^N 1-385 lacking 183-210, EZH2^C 421-746, EED 77-441, SUZ12 535-685) (human) (Q15910 other isoform, or with tags, fused parts or gaps, chain 1 of 4): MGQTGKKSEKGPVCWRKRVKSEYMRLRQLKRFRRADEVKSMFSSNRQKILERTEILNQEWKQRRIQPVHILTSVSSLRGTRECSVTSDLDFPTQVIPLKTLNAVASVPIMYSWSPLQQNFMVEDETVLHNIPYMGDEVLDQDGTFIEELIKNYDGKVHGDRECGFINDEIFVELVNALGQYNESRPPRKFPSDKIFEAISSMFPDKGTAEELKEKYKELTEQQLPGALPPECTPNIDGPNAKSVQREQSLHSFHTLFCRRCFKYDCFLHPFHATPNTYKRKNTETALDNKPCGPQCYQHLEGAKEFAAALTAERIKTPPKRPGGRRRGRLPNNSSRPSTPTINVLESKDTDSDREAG
Chain of human PRC2 core complex (EZH2^N 1-385 lacking 183-210, EZH2^C 421-746, EED 77-441, SUZ12 535-685) (human) (Q15910 421-746, chain 2 of 4): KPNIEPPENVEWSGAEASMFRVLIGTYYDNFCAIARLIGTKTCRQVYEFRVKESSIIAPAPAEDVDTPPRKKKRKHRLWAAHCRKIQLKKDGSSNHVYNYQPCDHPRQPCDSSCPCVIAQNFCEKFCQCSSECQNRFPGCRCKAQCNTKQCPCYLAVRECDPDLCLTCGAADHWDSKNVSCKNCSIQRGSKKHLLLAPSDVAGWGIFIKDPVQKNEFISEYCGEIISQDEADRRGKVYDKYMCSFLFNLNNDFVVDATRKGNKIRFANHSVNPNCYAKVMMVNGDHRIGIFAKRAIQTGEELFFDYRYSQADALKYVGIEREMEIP
Chain of human PRC2 core complex (EZH2^N 1-385 lacking 183-210, EZH2^C 421-746, EED 77-441, SUZ12 535-685) (human) (O75530 77-441, chain 3 of 4, further chain): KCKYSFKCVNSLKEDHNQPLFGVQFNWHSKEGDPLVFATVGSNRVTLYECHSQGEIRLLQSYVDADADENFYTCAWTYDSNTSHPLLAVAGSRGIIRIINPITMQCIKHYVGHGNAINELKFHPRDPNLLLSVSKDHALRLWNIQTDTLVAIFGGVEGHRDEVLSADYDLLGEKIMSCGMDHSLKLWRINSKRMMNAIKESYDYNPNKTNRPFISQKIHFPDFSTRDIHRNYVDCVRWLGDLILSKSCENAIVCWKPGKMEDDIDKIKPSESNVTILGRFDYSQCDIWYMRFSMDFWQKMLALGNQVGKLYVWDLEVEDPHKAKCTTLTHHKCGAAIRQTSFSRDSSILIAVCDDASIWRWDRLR
Chain of human PRC2 core complex (EZH2^N 1-385 lacking 183-210, EZH2^C 421-746, EED 77-441, SUZ12 535-685) (human) (Q15022 535-685, chain 4 of 4, further chain): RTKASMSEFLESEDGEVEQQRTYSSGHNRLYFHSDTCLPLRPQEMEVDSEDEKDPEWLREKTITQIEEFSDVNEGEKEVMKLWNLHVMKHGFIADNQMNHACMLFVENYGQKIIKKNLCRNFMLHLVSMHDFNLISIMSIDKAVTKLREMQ

Chain of human PRC2 complex (Q15910 421-746 limits assumed, stated change not applied): as the sequence (Q15910 421-746, chain 2 of 4) above
Chain of human PRC2 complex (Q15910 with tags, fused parts or gaps DEL183-210 limits assumed): as the sequence (Q15910 other isoform, or with tags, fused parts or gaps, chain 1 of 4) above
Chain of human PRC2 complex (O75530 77-441 partner limits assumed): as the sequence (O75530 77-441, chain 3 of 4, further chain) above
Chain of human PRC2 complex (Q15022 535-685 partner limits assumed): as the sequence (Q15022 535-685, chain 4 of 4, further chain) above

With Nc1ncnc2c1ncn2[C@@H]1O[C@H](CSCC[C@H](N)C(=O)O)[C@@H](O)[C@H]1O [SAH] the “binding of cofactor product” value (human PRC2 complex; relative to SAM) was “binds much weaker”.

In the case of C[S+](CC[C@H](N)C(=O)[O-])C[C@H]1O[C@@H](n2cnc3c(N)ncnc32)[C@H](O)[C@@H]1O (stereo partly drawn) [SAM, S-adenosylmethionine], the Kd (human PRC2 complex) is reported as 47 ± 9 µM.

For “Jarid2 K116me3: trimethylated K116 Jarid2 peptide (residues 111–121), binds EED and activates PRC2”, the “activation of PRC2” value (PRC2 [1]) is listed as “strongest activation of PRC2”.

In the case of Norleucine, the “relative inhibition of PRC2 by residue at position 27 (words)” value (PRC2 [2]) is given as “even better inhibitor than methionine” and the “relative inhibition of PRC2 by residue at position 27 (words)” value (PRC2 [2]; listed as norleucine) is given as “strong inhibition”.

In the case of unlabelled H3R26AK27M peptide, the Kd [3] is reported as 73 µM.
